In PMC11033495 (Pharmacology Research & Perspectives, 2024):
Where two headings read alike, the source gives them in different places.

Tests used:
CYP3A4 [1] = test: Plasma 4β-OH cholesterol as biomarker of CYP3A4 activity in mice fed ND or HCD; assay type: in vivo; details: hCYP3A mice
CYP3A4 [2] = assay type: in vivo; details: oral TRZ 1 mg/kg; hCYP3A mice fed HCD versus ND
[3] = assay type: in vivo, hCYP3A mice; details: mean ± SD, n = 4
CYP3A4 [4] = test: Inhibition of TRZ hydroxylation by KCZ in pooled liver microsomes; assay type: biochemical, hCYP3A mice; details: 0.01, 0.1 and 1 μM KCZ; pooled liver microsomes of ND and HCD mice
CYP3A4 [5] = test: In vivo DDI study: KCZ pretreatment before oral TRZ in mice fed ND or HCD; set-up: species or system hCYP3A mice; details: for Percentage of decline in AUCRα-OH: 40 mg/kg KCZ oral 15 min before oral TRZ 1 mg/kg, versus vehicle
[6] = hCYP3A mice fed CA-diet (CE-2 + 0.5% CA) for 1 week
[7] = hCYP3A mice fed ND (CE-2) for 1 week
[8] = both ND and HCD mice, 40 mg/kg KCZ oral, TRZ 1 mg/kg oral

## CC(C)CCC[C@@H](C)[C@H]1CC[C@H]2[C@@H]3CC=C4[C@@H](O)[C@@H](O)CC[C@]4(C)[C@H]3CC[C@]12C [4β‐OH cholesterol, 4β‐Hydroxy (4β‐OH) cholesterol]
CYP3A4 [1]
  Plasma concentration ratio (4β-OH cholesterol/cholesterol), HCD versus ND: not significantly different
CYP3A4 [1]; HCD versus ND
  Plasma level in mice fed HCD compared with mice fed ND: significantly higher
CYP3A4 [1]; HCD versus ND, Figure S4A
  Increase of plasma level by HCD: about twofold

## Cc1nnc2n1-c1ccc(Cl)cc1C(c1ccccc1Cl)=NC2O (stereo not drawn) [4‐OH TRZ, 4‐hydroxy triazolam]
CYP3A4 [2]
  Plasma concentrations and AUC values in HCD mice compared with ND mice: lower

## C[C@H](CCC(=O)O)[C@H]1CC[C@H]2[C@@H]3[C@H](O)C[C@@H]4C[C@H](O)CC[C@]4(C)[C@H]3C[C@H](O)[C@]12C [CA, cholic acid]
[3]; [6]
  Plasma concentration: 1.35 ± 1.869 µg/mL
[3]; [7]
  Plasma concentration: 0.312 ± 0.243 µg/mL

## CC(C)CCC[C@@H](C)[C@H]1CC[C@H]2[C@@H]3CC=C4C[C@@H](O)CC[C@]4(C)[C@H]3CC[C@]12C [Cholesterol, cholesterol]
[3]; [6]
  Plasma concentration: 2250 ± 336 µg/mL
[3]; [7]
  Plasma concentration: 1361 ± 152 µg/mL

## CC(=O)N1CCN(c2ccc(OCC3COC(Cn4ccnc4)(c4ccc(Cl)cc4Cl)O3)cc2)CC1 (stereo not drawn) [KCZ, ketoconazole]
CYP3A4 [4]
  Effect on microsomal activity of TRZ hydroxylation in liver: inhibited
CYP3A4 [5]; HCD mice
  Percentage of decline in AUCRα-OH: 46%
CYP3A4 [5]; ND mice
  Percentage of decline in AUCRα-OH: 49%
CYP3A4 [5]; [8]
  Effect of pretreatment on plasma concentrations of TRZ: tended to increase
  Effect of pretreatment on plasma concentrations of α-OH TRZ: decrease

## Cc1nnc2n1-c1ccc(Cl)cc1C(c1ccccc1Cl)=NC2 [TRZ, triazolam, reference compound]
CYP3A4 [2]
  Plasma concentrations and AUC values in HCD mice compared with ND mice: lower

## OCc1nnc2n1-c1ccc(Cl)cc1C(c1ccccc1Cl)=NC2 [α‐OH TRZ, α‐hydroxy triazolam]
CYP3A4 [2]
  Plasma concentrations and AUC values in HCD mice compared with ND mice: lower
